From US10138260B2, “Compounds of phosphinanes and azaphosphinanes, a process for their preparation and pharmaceutical compositions containing them” (LES LABORATOIRES SERVIER, priority 2016, dated 2018)

Target: T1, TAFIa (Homo sapiens, UniProt Q96IY4)
T1 sequence (Q96IY4 115-423): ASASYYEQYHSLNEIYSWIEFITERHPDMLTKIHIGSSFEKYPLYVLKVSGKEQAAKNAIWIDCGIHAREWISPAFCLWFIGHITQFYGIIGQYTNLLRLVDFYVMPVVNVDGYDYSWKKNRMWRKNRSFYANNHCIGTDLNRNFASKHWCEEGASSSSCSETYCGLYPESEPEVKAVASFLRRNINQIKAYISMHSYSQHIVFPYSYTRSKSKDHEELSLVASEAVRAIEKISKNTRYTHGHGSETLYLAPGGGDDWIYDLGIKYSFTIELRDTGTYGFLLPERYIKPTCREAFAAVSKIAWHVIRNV
Assay: Inhibition of TAFIa (hippuryl-Arg test)
Type: biochemical
Settings: TAFIa 2 nM, hippuryl-arginine 5 mM, 45 minutes, relative to control containing the carrier; for inhibition at 0.01 µM: compound at 10 nM; for inhibition at 0.02 µM: compound at 20 nM
Outline: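 TAFI (4 nM) activated 20 min by thrombin/thrombomodulin with 10 mM calcium, stopped with PPACK; TAFIa (2 nM) then incubated 45 min with compound and 5 mM hippuryl-arginine in Hepes buffer, pH 7.4, 28 °C. Absorbance at 405 nm, blank-corrected; % inhibition versus carrier at 10 and 20 nM.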

| SMILES | inhibition at 0.01 µM | inhibition at 0.02 µM |
| --- | --- | --- |
| NCCCC[C@@]1(C(=O)O)CN(Cc2ccc(F)cc2-c2ccc(F)cc2)CCP1(=O)O [Example 189, (3S)-3-(4-AMINOBUTYL)-1-[[4-FLUORO-2-(4-FLUOROPHENYL)PHENYL]METHYL]-4-HYDROXY-4-OXO-1,4-AZAPHOSPHINANE-3-CARBOXYLIC ACID] | 71% | 78% |
| NCCCCC1(C(=O)O)CN(Cc2ccccc2-c2cnc3ccccn23)CCP1(=O)O (stereo not drawn) [Example 167, 3-(4-AMINOBUTYL)-4-HYDROXY-1-[(2-IMIDAZO[1,2-A]PYRIDIN-3-YLPHENYL)-METHYL]-4-OXO-1,4-AZAPHOSPHINANE-3-CARBOXYLIC ACID] | 61% | 67% |
| NCCCC[C@@]1(C(=O)O)CN(Cc2ccc(O)cc2-c2cnc3ccccn23)CCP1(=O)O [Example 224, (3S)-3-(4-AMINOBUTYL)-4-HYDROXY-1-[4-HYDROXY-2-(IMIDAZO[1,2-A]-PYRIDIN-3-YL)BENZYL]-4-OXO-1,4-AZAPHOSPHINANE-3-CARBOXYLIC ACID] | 86% | 93% |
| NCCCC[C@@]1(C(=O)O)CN(Cc2ccc(F)cc2-c2cccc(F)c2)CCP1(=O)O [Example 226, (3S)-3-(4-AMINOBUTYL)-1-[[4-FLUORO-2-(3-FLUOROPHENYL)PHENYL]METHYL]-4-HYDROXY-4-OXO-1,4-AZAPHOSPHINANE-3-CARBOXYLIC ACID] | 71% | 88% |
| Cc1ncc(-c2ccccc2CN2CCP(=O)(O)[C@](CCCCN)(C(=O)O)C2)n1C [Example 250, (3S)-3-(4-AMINOBUTYL)-1-[[2-(2,3-DIMETHYLIMIDAZOL-4-YL)PHENYL]-METHYL]-4-HYDROXY-4-OXO-1,4-AZAPHOSPHINANE-3-CARBOXYLIC ACID] | 88% | 97% |

More lines, now with the values ahead:

| inhibition at 0.01 µM | inhibition at 0.02 µM | SMILES |
| --- | --- | --- |
| 70% | 86% | NCCCC[C@@]1(C(=O)O)CN(Cc2ccccc2-c2cc[nH]c(=O)c2)CCP1(=O)O [Example 204, (3S)-3-(4-AMINOBUTYL)-4-HYDROXY-4-OXO-1-[[2-(2-OXO-1H-PYRIDIN-4-YL)PHENYL]METHYL]-1,4-AZAPHOSPHINANE-3-CARBOXYLIC ACID] |
| 77% | 91% | COc1ccc(-c2ccccc2CN2CCP(=O)(O)[C@](CCCCN)(C(=O)O)C2)cn1 [Example 196, (3S)-3-(4-AMINOBUTYL)-4-HYDROXY-1-[2-(6-METHOXYPYRIDIN-3-YL)BENZYL]-4-OXO-1,4-AZAPHOSPHINANE-3-CARBOXYLIC ACID] |
| 53% | 66% | NCCCCC1(C(=O)O)CN(Cc2ccccc2-c2ccc3ccccc3c2)CCP1(=O)O (stereo not drawn) [Example 50, 3-(4-AMINOBUTYL)-4-HYDROXY-1-[(2-NAPHTHALEN-2-YLPHENYL)METHYL]-4-OXO-1,4-AZAPHOSPHINANE-3-CARBOXYLIC ACID] |
| 35% | 46% | CS(=O)(=O)c1ccccc1-c1ccccc1CN1CCP(=O)(O)[C@](CCCCN)(C(=O)O)C1 [Example 208, (3S)-3-(4-AMINOBUTYL)-4-HYDROXY-1-[[2-(2-METHYLSULPHONYLPHENYL)-PHENYL]METHYL]-4-OXO-1,4-AZAPHOSPHINANE-3-CARBOXYLIC ACID] |
| 44% | 66% | NCCCCC1(C(=O)O)CN(Cc2ccsc2-c2ccccc2)CCP1(=O)O (stereo not drawn) [Example 105, 3-(4-AMINOBUTYL)-4-HYDROXY-4-OXO-1-[(2-PHENYLTHIOPHEN-3-YL)METHYL]-1,4-AZAPHOSPHINANE-3-CARBOXYLIC ACID] |
| 60% | 77% | Cn1nccc1-c1ccccc1CN1CCP(=O)(O)[C@](CCCCN)(C(=O)O)C1 [Example 235, (3S)-3-(4-AMINOBUTYL)-4-HYDROXY-1-[[2-(2-METHYLPYRAZOL-3-YL)PHENYL]METHYL]-4-OXO-1,4-AZAPHOSPHINANE-3-CARBOXYLIC ACID] |
| 76% | 87% | NCCCC[C@@]1(C(=O)O)CN(Cc2ccccc2-c2ccc3ccccc3c2)CCP1(=O)O [Example 209, (3S)-3-(4-AMINOBUTYL)-4-HYDROXY-1-[(2-NAPHTHALEN-2-YLPHENYL)-METHYL]-4-OXO-1,4-AZAPHOSPHINANE-3-CARBOXYLIC ACID] |
